Entries after “also recorded” stand apart in the source; their conditions may differ.
Legend:
GR P-Ser211 = assay: Western blot of GR P-Ser211; format: cell-based, human
Procedure: […] Control cells were treated with ethanol as vehicle (1:1000). Treatments were carried out in a phenol red free medium containing 5% dextran-charcoal-stripped serum for a period of 24 h in MCF-7 and MDA-MB231 and 48 h in HBE cells.
(§1) These five antibodies were then detected with an anti-rabbit HRP-conjugated secondary antibody (1:5000) (Santa Cruz, Heidelberg, Germany). Actin expression was analyzed with the human anti-β-actin mouse monoclonal primary antibody (1:20 000) (β-actin (AC-15); A5441, Sigma-Aldrich, St Quentin Fallavier, France), and then detected with an anti-mouse HRP-conjugated secondary antibody (1:2000) (Sigma-Aldrich, St Quentin Fallavier, France).

[1] = target: MAPK phosphorylated p38 (P-p38) (Homo sapiens, UniProt Q16539); assay: Western blot of phosphorylated MAPK p38; format: cell-based; conditions: MCF-7, in presence of SB
Procedure: as §1

BRCA1 = conditions: mouse mammary cells (Antonova and Mueller 2008); cited from earlier work

MAPK phosphorylated p38 (P-p38), sequence (Q16539 whole entry): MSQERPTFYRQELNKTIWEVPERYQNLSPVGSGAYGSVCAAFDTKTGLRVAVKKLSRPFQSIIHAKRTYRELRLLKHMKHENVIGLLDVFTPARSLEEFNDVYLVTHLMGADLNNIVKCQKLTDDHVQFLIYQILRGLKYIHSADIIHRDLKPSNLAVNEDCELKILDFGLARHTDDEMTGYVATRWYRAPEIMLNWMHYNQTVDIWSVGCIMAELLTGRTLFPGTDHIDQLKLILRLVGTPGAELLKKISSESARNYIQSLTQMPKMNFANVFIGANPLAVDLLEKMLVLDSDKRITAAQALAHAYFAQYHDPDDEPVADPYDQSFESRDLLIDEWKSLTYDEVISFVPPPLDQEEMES

Row | levels of P-p38 [1] | SMILES | decrease of GR P-Ser211 level (GR P-Ser211; MCF-7, DEX+SB compared to DEX treatment alone) | GR P-Ser211 level (GR P-Ser211; MCF-7, cells exposed to SB compared to basal conditions, even with BRCA1 overexpression) | BRCA1 expression (BRCA1)
1 | increased | Oc1ccc(-c2nc(-c3ccncc3)c(-c3ccc(F)cc3)[nH]2)cc1 [SB] | also observed | constant decrease | –
2 | – | C[C@]12CCC(=O)C=C1CC[C@@H]1[C@@H]2[C@@H](O)C[C@@]2(C)[C@H]1CC[C@]2(O)C(=O)CO [hydrocortisone] | – | – | repress; also recorded: decrease
